Results reported in patent US4716159A, “Pyridazino[4,3-c]-isoquinolines having anti-anxiety activity” (Gruppo Lepetit, S.p.A., priority 1983, dated 1987).

Assays:
[1] = molecular target: benzodiazepine receptor; test: benzodiazepine receptor test (displacement of 3H-diazepam from rat brain receptors); type: binding; details: for Ki: 3H-diazepam, unit inferred; for Inhibition % of the 3H diazepam binding: test compound at 3,6 μM
Description: The anti-anxiety activity of the compounds of the present invention was first detected by submitting some representative compounds to the benzodiazepine receptor test. […] Our experiments were carried out by following the method described by H. Moand T. Okada in Life Sciences, Vol. 20, 2101-2110 (1977).
of the test compound of 3,6 μM.

[2] = tested on: mice; test: antipentylenetetrazole assay in mice; type: in vivo; details: for prevention of tonic extensor seizures (pentylenetetrazole): pentylenetetrazole 140 mg/kg s.c., compound 30 min before
Description: The antipentylenetetrazole assay in mice have been carried out by essentially following the methodology described by Berger in J. Pharm. Exptl. Ther. 104, 468, (1952). A fatal dose of pentylenetetrazole (140 mg/kg, s.c.) was administered to groups of ten mice each, treated, 30 minutes before the administration of the convulsant agent, with a selected dose of the test compound.

[3] = tested on: rats; test: conflict test in rats (punished responding, Vogel method as modified by Lippa); type: in vivo, rat; details: i.p., 60 minutes after administration; for minimal effective dose: Rattus norvegicus, ip, 1 h, read-out: MED (minimal effective dose which significantly increased the number of shocks)
Description: The ability of the compounds of the present invention to increase punished responding in animals in a conflict situation, a procedure with high validity for predicting the anxiolytic effect of drugs, was assessed by testing these compounds in rats according to the method described by J. R. Vogel, B. Beer, D. E. Clody in Psycopharmacologia 21, 1-7, (1971) as modified by A. S. Lippa et al., in "Anxiolytics, Industrial Pharmacology",Vol. 3, Futura Publishing, 1979, pages 41-81.
Briefly, rats are deprived of water for 48 hours and deprived of food for 20 hours prior to testing. Sixty minutes after administration of the test compound each rat is placed in an specially equipped cage. A glucose solution is available from a tap located in the rear of the cage. A constant pulsating shocking current is connected between the grid floor and the tap. Each rat is allowed 20 seconds of non-shocked drinking, then cycles of 5 seconds shock-off and 5 seconds shock-on began. During the shock-on period each lick on the top is accompanied by shock. The number of shocks received by each animal is recorded and minimal effective doses are determined.

[4] = tested on: mice; test: anti-bicuculline test in mice; type: in vivo; details: for prevention of seizures (bicuculline): i.p. (highest dose tested), bicuculline 2 mg/kg s.c., compound 30 min before
Description: The experiments were conducted essentially following the methodology described by P. De La Mora et R. Tapia in Biochem. Pharmac. 22, 2635-2639 (1973). A dose of bicuculline (2 mg/kg, s.c.) was administered to groups of ten mice each which had been given a fixed dose of the text compound 30 minutes before treatment. […] The significance of this fact has not yet been completely clarified since it was first described only recently for two quinoline derivatives (see G. Le Fur et al., Life Sci., 28, 1439-1448 (1981)). […] The favourable pharmacological properties of the compounds of the present invention are accompanied by a generally low toxicity, as in fact the acute toxicity of the compounds of the present invention is in general from 200 to more than 600 mg/kg, i.p. In view of the above, the use of the compounds of the present invention as anticonvulsant and antianxiety agents is a further specific object of the present invention. With the term "use" it is intended to refer to all industrially applicable aspects and acts of said use, including the embodiment of the novel compounds into pharmaceutical compositions.

[5] = 100 mg/kg (highest dose tested)

Molecule | Ki [1] [nM] | Inhibition % of the 3H diazepam binding [1] [%] | minimal effective dose [3] [mg/kg] | prevention of tonic extensor seizures (pentylenetetrazole) ([2]; 50 mg/kg (highest dose tested)) | prevention of seizures (bicuculline) ([4]; 100 mg/kg) | also measured
CC(C)Oc1nc2cc(-c3ccccc3)nnc2c2ccccc12 [Example 10] | 1900 | – | – | – | – | –
CCOC(=O)C1CCN(c2nc3cc(-c4ccc(OC)cc4)nnc3c3ccccc23)CC1 [Example 21] | – | -39 | – | – | – | –
c1ccc(-c2cc3nc(N4CCCC4)c4ccccc4c3nn2)cc1 [Example 5, 3-phenyl-6-(1-pyrrolidinyl)pyridazino-[4,3-c]isoquinoline] | 11.4 | – | 5 | – | – | prevention of tonic extensor seizures (pentylenetetrazole) [2, 5]: failed to prevent tonic extensor seizures; prevention of seizures (bicuculline) ([4]; 50 mg/kg): uneffective
COc1ccc(-c2cc3nc(N4CCCC4)c4ccccc4c3nn2)cc1 [Example 18] | 18.7 | – | 20 | uneffective | failed to prevent seizures | –
COc1ccc(-c2cc3nc(N(C)CC(C)O)c4ccccc4c3nn2)cc1 (centres unmarked) [Example 14] | 221 | – | 30 | uneffective | failed to prevent seizures | –
Clc1ccc(-c2cc3nc(N4CCCC4)c4ccccc4c3nn2)cc1 [Example 27, 3-(4-Chlorophenyl)-6-(l-pyrrolidinyl)pyridazino[4,3-c]isoquinoline] | – | -63 | – | – | – | –
COc1ccc(-c2cc3nc(N4CCOCC4)c4ccccc4c3nn2)cc1 [Example 20, 3-(4-Methoxyphenyl)-6-(4-morpholinyl)-pyridazino[4,3-c]isoquinoline] | – | -76 | 30 | uneffective | failed to prevent seizures | –
COc1ccc(-c2cc3nc(N(C)C)c4ccccc4c3nn2)cc1 [Example 13, N,N-dimethyl-3-(4-methoxyphenyl)pyridazino[4,3-c]isoquinolin-6-amine] | 63.3 | – | 10 | uneffective | failed to prevent seizures | –
CCOC(=O)CCCN(C)c1nc2cc(-c3ccc(OC)cc3)nnc2c2ccccc12 [Example 16] | – | -69 | – | – | – | –
COc1ccc(-c2cc3nc(N4CCC4)c4ccccc4c3nn2)cc1 [Example 17, 6-(1-Azetidinyl)-3-(4-methoxyphenyl)pyridazino[4,3-c]isoquinoline] | 130 | – | 30 | uneffective | failed to prevent seizures | –
3-Methyl-pyridazino[4,3-c]isoquinoline [Example 32] | 245 | – | – | uneffective | failed to prevent seizures | MED (minimal effective dose which significantly increased the number of shocks) [3]: 20 Mg/Kg
CCN(C)c1nc2cc(-c3ccccc3)nnc2c2ccccc12 [Example 3, N-ethyl-3-phenyl-N-methylpyridazino-[4,3-c]-isoquinolin-6-amine] | 65.2 | – | 10 | – | – | prevention of tonic extensor seizures (pentylenetetrazole) [2, 5]: failed to prevent tonic extensor seizures; prevention of seizures (bicuculline) ([4]; 50 mg/kg): uneffective
COCCOc1nc2cc(-c3ccc(OC)cc3)nnc2c2ccccc12 [Example 24, 6-(2-Methoxyethoxy)-3-(4-methoxyphenyl)pyridazino[4,3-c]isoquinoline] | – | -47 | – | – | – | –
c1ccc(-c2cc3nc(N4CCOCC4)c4ccccc4c3nn2)cc1 [Example 6, 3-Phenyl-6-(4-morpholinyl)pyridazino[4,3-c]-isoquinoline] | 152 | – | 15 | – | – | prevention of tonic extensor seizures (pentylenetetrazole) [2, 5]: failed to prevent tonic extensor seizures; prevention of seizures (bicuculline) ([4]; 50 mg/kg): uneffective
CCOc1nc2cc(-c3ccccc3)nnc2c2ccccc12 [Example 9, 6-Ethoxy-3-phenyl-pyridazino [4,3-c]isoquinoline] | 1480 | – | – | – | – | –
Clc1nc2cc(-c3ccccc3)nnc2c2ccccc12 [Example 1, 6-Chloro-3-phenyl-pyridazino-[4,3-c]-isoquinoline] | – | -36 | – | – | – | –
CC(O)CN(C)c1nc2cc(-c3ccccc3)nnc2c2ccccc12 (centres unmarked) [Example 4, 1-[(3-Phenyl-pyridazino[4,3-c]isoquinolin-6-yl)methylamino]-2-propanol] | 136 | – | 30 | – | – | prevention of tonic extensor seizures (pentylenetetrazole) [2, 5]: failed to prevent tonic extensor seizures; prevention of seizures (bicuculline) ([4]; 50 mg/kg): uneffective
COCCN(CCOC)c1nc2cc(-c3ccc(OC)cc3)nnc2c2ccccc12 [Example 15, N,N-bis(2-methoxyethyl)-3-(4-methoxyphenyl)pyridazino[4,3-c]isoquinolin-6-amine] | 1180 | – | 10 | uneffective | failed to prevent seizures | –
CN1C(=O)CN=C(c2ccccc2)c2cc(Cl)ccc21 [Diazepam, reference compound] | – | – | – | – | – | ED50 ([2]; Mus musculus, ip, 0.5 h, i.p., same experiment, read-out: ED50 (dose which prevents tonic extension seizures in 50% of the treated animals), pentylenetetrazole): 0.2 mg/kg; ED50 ([4]; Mus musculus, ip, 0.5 h, i.p., same experiment, read-out: ED50 (dose which prevents tonic extensor seizures in 50% of the treated animals), bicuculline): 0.18 mg/kg
CN(C)c1nc2cc(-c3ccccc3)nnc2c2ccccc12 [Example 2, 3-Phenyl-N,N-dimethyl-pyridazino-[4,3-c]-isoquinolin-6-amine] | 28.4 | – | 10 | uneffective | failed to prevent seizures | –
CCOC(=O)N1CCN(c2nc3cc(-c4ccc(OC)cc4)nnc3c3ccccc23)CC1 [Example 22] | – | -61 | – | – | – | –
COc1ccc(-c2cc3nc(N4CCCCC4)c4ccccc4c3nn2)cc1 [Example 19, 3-(4-Methoxyphenyl)-6-(1-piperidinyl)-pyridazino[4,3-c]isoquinoline] | – | -70 | 10 | uneffective | failed to prevent seizures | –
